Assay results as given in article PMC9861386, “N-Heterocyclic Carbene-Iridium Complexes as Photosensitizers for In Vitro Photodynamic Therapy to Trigger Non-Apoptotic Cell Death in Cancer Cells” (Molecules, 2023).
Read-outs that look alike come from different tables or passages of the source.

What was measured:
[1] = Photophysical measurements (emission, quantum yield, lifetime) in CH2Cl2; assay type: physicochemical; conditions: for τ1 excited-state lifetime: CH2Cl2; for ΦPL emission quantum yield: CH2Cl2, 298 K, references POPOP and quinine sulfate
Text: All complexes have been photophysically investigated at standard pressure in CH2Cl2 at 298 K. The absorption spectra of complexes 4a to 4g in CH2Cl2 at 298 K are shown in Figure 7. The strong absorption bands below 300 nm correspond to spin-allowed ^1π→π* electronic ligand-centered (LC) transitions. The structureless bands at 300–360 nm are attributed to ppy-to-ppy ^1π→π* […] charge transfer (LLCT) and Ir-to-ppy metal-to-ligand charge transfer (MLCT) transitions. The lowest-lying bands in the visible region can be assigned to both singlet and triplet MLCT transitions. No significant difference in the absorption spectra of complexes 4a to 4g can be found in the CH2Cl2 solution.
The luminescence spectra of complexes 4a to 4f in CH2Cl2 at 298 K are shown in Figure 8 and their photophysical data are summarized in Table 1.
The relative emission quantum yields (ΦPL) of these complexes in CH2Cl2 at room temperature were measured by using POPOP and quinine sulfate in 1 N H2SO4 as standard references (ΦPL = 97% and ΦPL = 54%, respectively). […] In addition, the excited-state lifetimes of complexes 4a to 4d are in the range of 166.4–190.7 ns, indicating the phosphorescence nature of the emissions.
UV/Vis absorption spectra were recorded at RT on solutions contained in quartz cuvettes (optical pathlength 1 cm, Hellma® (HELLMA, Müllheim, Germany)) with a PerkinElmer® (PerkinElmer, Waltham, MA, USA) UV/VIS/NIR spectrophotometer Lambda 950 and a PerkinElmer® detector UV/VIS/NIR Accessory 2D Detector Module.
Fluorescence and phosphorescence emission spectra were obtained with a HORIBA JOBIN YVON (Bensheim, Germany) fluromax-4 and spectrofluorometer.
Luminescence quantum yields were measured according to the method of Demas and Crosby, on solution samples at RT. The quantum yield is defined as: ΦS=ΦR*As/Ar* ηs/ηr^2^2 where ΦS is the quantum yield of the sample, ΦR is the known quantum yield of the reference standard at the area subtended by the emission band (on a wavelength scale) and η is the refractive index of the solvent used for the preparation of the solution. As (related to the sample) and Ar (related to the reference) must be excitation wavelength. Different standards were selected depending on the spectral region of the interest: POPOP in hexane (Φ = 97%) and QUININNE in water (Φ = 54%).
Fluorescence lifetime measurements were performed by an Edinburgh FLS920 spectrofluorometer equipped with a TCC900 card for data acquisition in time-correlated single-photon counting experiments (0.5 ns time resolution) with a D2 lamp and an LDH-P-C-405 pulsed diode laser. The estimated experimental error was 2 nm on the band maximum (5% on the lifetime, 10% on the fluorescence quantum yield).

MC3T3 osteoblasts = assay: MTT cell viability, 72 h, dark or 458 nm irradiation; assay type: cell-based, murine
Procedure: (§1) For all biology experiments, the compounds were solubilized in DMSO to reach a final fixed concentration equal to 0.1% v/v to avoid cytotoxicity caused by DMSO [89]. The results are normalized to controls (0.1% v/v DMSO). Depending on the cell type, approximatively 1000 to 10,000 cells/cm^2 were seeded in 48-well plates for MTT, ATP and GSH assays and 60 mm Petri dishes for Western blots. Cells were allowed to attach overnight and then incubated for 4 h with the different complexes (in the dark), then irradiated for 10 min, followed by an incubation in the dark up to 72 h.
(§2) Irradiation was conducted using an in-house device: a series of blue light LEDs selected according to the absorption spectra of the compounds at a 458 nm wavelength with an emitted power of 9.6 watts. The absorbed energy, or irradiance, was measured at 458 nm with a Thorlabs Optical Power Meter PM100A at 5 and 10 cm distance between the cell layer and the light source and expressed as mW/cm^2.
(§3) A tetrazolium-based MTT reagent (3-(4,5-dimethylthiazol-2-yl)-2,5-diphenyltetrazolium bromide) was used to determine cell viability, as previously described. After 72 h of treatment at 37 °C and 5% CO2, cells were incubated with 25 μL MTT solution (5 mg/mL; Sigma-Aldrich) for 4 h. After solubilization with 500 μL of lysis buffer (DMSO), formazan was quantified by spectrophotometry with a microplate reader at 570 nm absorbance (ClarioSTAR, BMG LabTech, Champigny-sur-Marne, France). GI50 values corresponding to the concentration that caused 50% inhibition of cell proliferation were calculated from dose–response curves obtained by nonlinear regression analysis. All results were calculated from data obtained in at least three independent experiments.

NIH-3T3 fibroblasts = assay: as above; assay type: cell-based, murine; conditions: for GI50: 72 h, MTT; for PI NIH-3T3: GI50 non-irradiated / GI50 irradiated
Procedure: as §1, §2, §3

NIH3T3 = assay: MTT cytotoxicity, 48 h; assay type: cell-based, murine
Procedure: The in vitro cytotoxicity of iridium(III) complexes 4a–4g was first evaluated against cancer cell lines PC-3 (human prostate) and T24 (human bladder) and the non-cancerous NIH-3T3 cell line (murine fibroblasts) using colorimetric MTT tests after 48 h of treatment. The dimeric iridium precursor [IrCl(ppy)2]2 was used as reference and the results are summarized in Table S1 (Supplementary Materials) in the supporting information file. […] The complexes were also evaluated for their cytotoxicity towards healthy NIH-3T3 cells, giving access to the selectivity index (SI). […] No linear correlation between lipophilicity and anti-cancer activity was found for the iridium(III) complexes 4a–4g. For the following biological studies, we focused on the C1 series.
Table S1. Cytotoxic activity of iridium(III) NHC complexes 4a−4g expressed as GI50 (μM) values towards selected cancer and normal cell lines as determined by MTT assay (48 h).a Complex PC-3 T24 NIH3T3 SI (PC-3) SI (T24) […]
a GI50 values correspond to the concentration of complexes causing 50 % inhibition of cell growth.
Data were obtained from three independent experiments.
The cytotoxic effects of the NHC precursors, the imidazolium salts, which represents the potential hydrolysis and/or degradation products of the complexes, have been published before [SI-1, SI-2]. […]

[2] = 458 nm irradiation 10 min, read-out: GI50 MC3T3 Blue
[3] = dark, read-out: GI50 MC3T3 Dark
[4] = 458 nm irradiation 10 min, read-out: GI50 NIH-3T3 Blue
[5] = dark, read-out: GI50 NIH-3T3 Dark

Compound	τ1 excited-state lifetime [1]	ΦPL emission quantum yield [1]	GI50 (MC3T3 osteoblasts; [2])	GI50 (MC3T3 osteoblasts; [3])	GI50 (NIH-3T3 fibroblasts; [4])	PI NIH-3T3 (NIH-3T3 fibroblasts)	GI50 (NIH-3T3 fibroblasts; [5])	GI50 (NIH3T3)
CSc1ccc(-[n+]2ccn3[c]2[Ir-3]24([c]5ccccc5-c5cccc[n+]52)([c]2ccccc2-c2cccc[n+]24)[c]2n(cc[n+]2-c2ccc(SC)cc2)C3)cc1.F[P-](F)(F)(F)(F)F [Complex 4d]	167 ns	1.1%	1.8 µM	2.08 µM	2.78 µM	0.8	2.33 µM	8.5 µM
CC(C)[n+]1ccn2[c]1[Ir-3]13([c]4ccccc4-c4cccc[n+]41)([c]1ccccc1-c1cccc[n+]13)[c]1n(cc[n+]1C(C)C)C2.F[P-](F)(F)(F)(F)F [Complex 4a]	191 ns	1.2%	1.74 µM	2.46 µM	2.79 µM	1.3	3.67 µM	3.3 µM
F[P-](F)(F)(F)(F)F.c1ccc(C[n+]2ccn3[c]2[Ir-3]24([c]5ccccc5-c5cccc[n+]52)([c]2ccccc2-c2cccc[n+]24)[c]2n(cc[n+]2Cc2ccccc2)C3)cc1 [Complex 4c]	180 ns	1.6%	1.33 µM	1.16 µM	2.67 µM	1.0	2.73 µM	7.1 µM
CC(C)C[n+]1ccn2[c]1[Ir-3]13([c]4ccccc4-c4cccc[n+]41)([c]1ccccc1-c1cccc[n+]13)[c]1n(cc[n+]1CC(C)C)C2.F[P-](F)(F)(F)(F)F [Complex 4b]	166 ns	1.6%	0.704 µM	0.979 µM	1.52 µM	1.3	1.95 µM	3.5 µM
